One assay has as its target T1, KRas^G12D (Homo sapiens, UniProt P01116, G12D).
T1 construct: […]; biotin (biotinylated); purchased Accelegan Inc
Briefly: KRas binding assay (TR-FRET displacement of Cy5 labelled tracer). On the technique in general: Time-resolved FRET reads energy transfer from a long-lived donor to a nearby acceptor.

Another assay concerns the target T2, KRas^G12R (Homo sapiens, UniProt P01116, G12R).
T2 construct: […]; biotin (biotinylated); purchased Accelegan Inc
The description is as above.

The next assay concerns the target T3, KRas^G12V (Homo sapiens, UniProt P01116, G12V).
T3 construct: […]; biotin (biotinylated); purchased Accelegan Inc
Described as above.

For the next assay, the system named is ASPC1 cells, pERK. In words: Inhibition of KRas phosphorylation of ERK (Cisbio HTRF Advanced pERK assay). Format: cell-based. The settings on record: Homo sapiens, ASPC1, 3 h, AsPC-1 cells, read-out: Inhibition (HTRF IC50 nM) of KRas-mediated Phosphorylation of ERK, AsPC-1. How it is done: (§1) Inhibition of KRas Phosphorylation of ERK (HTRF) by Exemplary Compounds of Formula (I)
(§2) Cisbio HTRF Advanced pERK Assay Catalog #64AERPEH
(§3) • Day 1: Seed 6,000 cells/well −25 μl/well in 384-well white solid bottom plate; RPM1_10% FBS. […] To harvest cells from flask using 0.05% Trypsin/EDTA solution. Add 10 mL of media to stop trypsinizing. Pipette the cells into a conical bottom 50 mL centrifuge tube and centrifuge 5 min×1000 rpm. • 2. Re-suspend the cell pellet in media, take a cell count, and then adjust the cell density using fresh media. • 3. Seed 6,000 cells into cell culture plate with […]. The • 4. Incubate cell plate overnight in a 37° C., 5% CO2 incubator. Compound Titrations • 1. Use Tecan to complete the compound addition. Compounds start from 10 uM top, 3-fold dilution, and 10 doses. The final DMSO concentration is 0.8%. Dispensed 0.2 uM Trametinib as Min control. • 2. Incubate cell plate for 3 hrs in the incubator. Detection with Cisbio pERK HTRF Kit • 1. Dilute 1 volume of 4× lysis buffer with 3 volumes of deionized water. Then, add 100× the blocking reagent. Keep lysis buffer on the ice. • 2. At the end of the compound treatment, flick-off the media. • 3. Add 35 μL of lysis buffer per well using a Multidrop Combi. Then place on a plate agitator shaking at 300 rpm at 4° C. for 40 mins. • 4. Make up the HTRF antibody buffer. For each assay plate, mix 50 μL of d2-conjugate antibody with 950 μL of detection buffer. Similarly, mix 50 μL of Cryptate antibody with 950 μL of detection buffer. Then mix the two diluted antibodies together. • 5. Dispense 3.4 μL the antibody buffer to wells of an empty assay plate. Seal the plate and centrifuge plate 30 sec×1000 rpm. • 6. At the end of the 4° C. lysis, centrifuge the lysate plates 3 mins×1500 rpm. • 7. Use the Bravo to transfer 13.6 μL of lysate from cell culture plate to assay plate. Then incubate assay plate for 2 hrs at room temperature. • 8. At the end of incubation, read plate on the Envision after centrifuging plate 30 sec×1000 rpm.

The test system of the next assay is H727 cells, pERK. The assay is described as above. Format: cell-based. The settings on record: Homo sapiens, NCI-H727, 3 h, read-out: Inhibition (HTRF IC50 nM) of KRas-mediated Phosphorylation of ERK, H727. How it is done:
as §1, §2, §3

A further assay has as its target T4, KRas^WT (Homo sapiens, UniProt P01116).
T4 construct: […]; biotin (biotinylated); purchased Accelegan Inc
In words: KRas binding assay (TR-FRET displacement of Cy5 labelled tracer).

The next assay concerns the target T5, KRas^G12A (Homo sapiens, UniProt P01116, G12A).
T5 construct: […]; biotin (biotinylated); purchased Accelegan Inc
The assay is described as above.

In a further assay the target is T6, KRas^G12S (Homo sapiens, UniProt P01116, G12S).
T6 construct: […]; biotin (biotinylated); purchased Accelegan Inc
T6 sequence (P01116 1-169 isoform P01116-2 G12S): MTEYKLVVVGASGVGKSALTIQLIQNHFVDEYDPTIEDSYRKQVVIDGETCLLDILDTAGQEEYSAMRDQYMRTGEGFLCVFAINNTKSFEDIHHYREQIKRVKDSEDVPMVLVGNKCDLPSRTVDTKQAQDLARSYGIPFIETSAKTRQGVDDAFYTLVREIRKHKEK
The description is as above.

The target in a further assay is KRas^G12C (Homo sapiens, UniProt P01116, G12C). In words: biochemical.
KRas^G12C, sequence (P01116 1-169 isoform P01116-2 G12C): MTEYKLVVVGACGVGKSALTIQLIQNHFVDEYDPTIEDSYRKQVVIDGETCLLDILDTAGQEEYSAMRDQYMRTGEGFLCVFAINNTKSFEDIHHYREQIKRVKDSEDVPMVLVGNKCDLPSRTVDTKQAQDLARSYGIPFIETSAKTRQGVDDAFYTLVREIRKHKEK
For another assay, the target named is KRas^G13D (Homo sapiens, UniProt P01116, G13D). Briefly: biochemical.
KRas^G13D, sequence (P01116 1-169 isoform P01116-2 G13D): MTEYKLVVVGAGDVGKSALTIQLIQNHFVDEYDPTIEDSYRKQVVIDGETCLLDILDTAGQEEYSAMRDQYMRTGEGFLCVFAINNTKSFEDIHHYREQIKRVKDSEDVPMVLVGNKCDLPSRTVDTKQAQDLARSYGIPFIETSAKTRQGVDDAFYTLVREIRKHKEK
The target in a further assay is KRas^Q61H (Homo sapiens, UniProt P01116, Q61H). In words: biochemical.
KRas^Q61H, sequence (P01116 1-169 isoform P01116-2 Q61H): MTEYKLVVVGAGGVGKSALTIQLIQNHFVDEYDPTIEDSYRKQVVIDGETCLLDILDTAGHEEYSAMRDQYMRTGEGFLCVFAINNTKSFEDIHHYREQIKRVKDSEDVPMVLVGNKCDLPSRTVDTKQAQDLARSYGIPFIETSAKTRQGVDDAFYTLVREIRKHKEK

Structures are written as SMILES.

Usually IC50 stands for the concentration needed to halve the response being measured.

T5 sequence (P01116 1-169 isoform P01116-2 G12A): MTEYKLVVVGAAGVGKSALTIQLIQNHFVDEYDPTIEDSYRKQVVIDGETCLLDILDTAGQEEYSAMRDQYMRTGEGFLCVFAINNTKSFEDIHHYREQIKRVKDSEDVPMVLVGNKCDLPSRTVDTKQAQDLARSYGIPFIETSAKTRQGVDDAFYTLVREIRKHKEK
T3 sequence (P01116 1-169 isoform P01116-2 G12V): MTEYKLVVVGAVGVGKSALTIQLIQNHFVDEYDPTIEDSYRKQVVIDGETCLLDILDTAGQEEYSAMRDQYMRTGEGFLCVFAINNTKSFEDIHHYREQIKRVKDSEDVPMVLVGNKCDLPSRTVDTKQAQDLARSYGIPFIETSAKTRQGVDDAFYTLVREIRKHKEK
T1 sequence (P01116 1-169 isoform P01116-2 G12D): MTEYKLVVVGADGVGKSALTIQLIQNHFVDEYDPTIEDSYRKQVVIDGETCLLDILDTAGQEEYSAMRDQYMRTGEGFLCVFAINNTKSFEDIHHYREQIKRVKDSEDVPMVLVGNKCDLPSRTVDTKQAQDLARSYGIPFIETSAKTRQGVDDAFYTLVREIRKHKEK
T2 sequence (P01116 1-169 isoform P01116-2 G12R): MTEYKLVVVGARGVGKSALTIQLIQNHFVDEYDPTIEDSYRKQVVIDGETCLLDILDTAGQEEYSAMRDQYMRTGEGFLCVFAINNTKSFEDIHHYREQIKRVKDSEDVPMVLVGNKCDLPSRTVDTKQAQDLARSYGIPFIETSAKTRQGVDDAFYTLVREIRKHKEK
T4 sequence (P01116 1-169 isoform P01116-2): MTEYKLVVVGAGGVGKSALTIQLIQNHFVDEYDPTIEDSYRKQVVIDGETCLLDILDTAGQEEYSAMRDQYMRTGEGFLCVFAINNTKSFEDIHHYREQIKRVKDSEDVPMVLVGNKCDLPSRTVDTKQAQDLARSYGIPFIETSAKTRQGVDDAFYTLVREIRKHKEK
Experimental for KRas^G12A: (§4) The ability of a compound to bind to KRas was measured using a TR-FRET displacement assay. […] After a 60-minute incubation at room temperature, the reaction was measured using a BMG LABTECH CLARIO star Plus via TR-FRET. […] The POC values were fit to a 4-parameter IC50 equation and the IC50 value reported.
Experimental for KRas^G12C: as §4
Experimental for KRas^G12D: as §4
Experimental for KRas^G12R: as §4
Experimental for KRas^G12S: as §4
Experimental for KRas^G12V: as §4
Experimental for KRas^G13D: as §4
Experimental for KRas^Q61H: as §4
Experimental for KRas^WT: as §4

Turning to `CN1CCC[C@H]1COc1nc2c(c(N3CCOCC(C)(O)C3)n1)CCN(c1cccc3cccc(Cl)c13)C2` (stereo partly drawn) [Example 205, 4-[7-(8-chloro-1-naphthyl)-2-[[(2S)-1-methylpyrrolidin-2-yl]methoxy]-6,8-dihydro-5H-pyrido[3,4-d]pyrimidin-4-yl]-6-methyl-1,4-oxazepan-6-ol], the half-inhibitory concentration (IC50) was 4690 nM on KRas^G12D; 6430 nM at KRas^G12R; 4700 nM at KRas^G12V; at least 10000 nM with ASPC1 cells, pERK; at least 10000 nM in the assay on H727 cells, pERK.
Take `CCc1cccc2cccc(N3CCc4c(nc(OCC56CCCN5CCC6)nc4N4CCC(O)C(CO)CC4)C3)c12` (centres unmarked) [Example 13, 1-(7-(8-ethylnaphthalen-1-yl)-2-((tetrahydro-1H-pyrrolizin-7a(5H)-yl)methoxy)-5,6,7,8-tetrahydropyrido[3,4-d]pyrimidin-4-yl)-5-(hydroxymethyl)azepan-4-ol]: the IC50 at KRas^WT was 41 nM; at KRas^G12A, 51 nM; on KRas^G12D it was 290 nM; on KRas^G12R, 99 nM; at KRas^G12S, 70 nM; at KRas^G12V, 73 nM. The figures for the IC50 against KRas^G12C, on KRas^G13D and on KRas^Q61H were 82 nM, 40 nM and 57 nM, respectively.
As to `CCc1cccc2cccc(N3CCc4c(nc(OCC56CCCN5CCC6)nc4N4CCC(OCC(N)=O)CC4)C3)c12` [Example 89, 2-((1-(7-(8-ethylnaphthalen-1-yl)-2-((tetrahydro-1H-pyrrolizin-7a(5H)-yl)methoxy)-5,6,7,8-tetrahydropyrido[3,4-d]pyrimidin-4-yl)piperidin-4-yl)oxy)acetamide], the IC50 on KRas^WT was determined as 959 nM; on KRas^G12A it was 427 nM; at KRas^G12D it was 7110 nM; at KRas^G12R it was 219 nM; at KRas^G12S, 721 nM; at KRas^G12V, 593 nM. Further, the IC50 against KRas^G12C was determined as 465 nM; against KRas^G13D, 1130 nM; at KRas^Q61H, 929 nM.
Consider `CCc1cccc2cccc(N3CCc4c(nc(OCC56CCCN5CCC6)nc4N4CC(O)C(O)C(O)C4)C3)c12` (centres unmarked) [Example 101, 1-(7-(8-ethylnaphthalen-1-yl)-2-((tetrahydro-1H-pyrrolizin-7a(5H)-yl)methoxy)-5,6,7,8-tetrahydropyrido[3,4-d]pyrimidin-4-yl)piperidine-3,4,5-triol], for which the half-inhibitory concentration (IC50) on KRas^WT was 515 nM; on KRas^G12A, 487 nM; at KRas^G12D, 1210 nM; at KRas^G12R, 400 nM; at KRas^G12S it was 383 nM; at KRas^G12V, 546 nM. For the same molecule, the IC50 against KRas^G12C is 355 nM; against KRas^G13D, 673 nM; against KRas^Q61H it was 740 nM.
On to `CCc1cccc2cccc(N3CCc4c(nc(OCC56CCCN5CCC6)nc4N4CCCC(c5nc(C)c(C(=O)NC6CCC6)o5)C4)C3)c12` (centres unmarked) [Example 140, N-cyclobutyl-2-(1-(7-(8-ethylnaphthalen-1-yl)-2-((tetrahydro-1H-pyrrolizin-7a(5H)-yl)methoxy)-5,6,7,8-tetrahydropyrido[3,4-d]pyrimidin-4-yl)piperidin-3-yl)-4-methyloxazole-5-carboxamide], for which the IC50 on KRas^WT turned out to be 1920 nM; at KRas^G12A it was 1660 nM; on KRas^G12D, 5210 nM; on KRas^G12R, 1440 nM; at KRas^G12S, 2000 nM; at KRas^G12V, 2380 nM. The values for the concentration for half-maximal inhibition (IC50) on KRas^G12C, at KRas^G13D and on KRas^Q61H were 1180 nM, 1760 nM and 2230 nM, respectively.
Consider `CCc1cccc2cccc(N3CCc4c(nc(OCC56CCCN5CCC6)nc4N4CC5CNC(=O)C5C4)C3)c12` (centres unmarked) [Example 52, 5-(7-(8-ethylnaphthalen-1-yl)-2-((hexahydro-1H-pyrrolizin-7a-yl)methoxy)-5,6,7,8-tetrahydropyrido[3,4-d]pyrimidin-4-yl)hexahydropyrrolo[3,4-c]pyrrol-1(2H)-one], for which the half-inhibitory concentration (IC50) at KRas^WT is 2220 nM; on KRas^G12A it was 1270 nM; on KRas^G12D it was 1230 nM; on KRas^G12R, 723 nM; at KRas^G12S, 584 nM; at KRas^G12V, 348 nM. Moreover, the concentration for half-maximal inhibition (IC50) against KRas^G12C stood at 662 nM; against KRas^G13D, 1150 nM; at KRas^Q61H, 1420 nM.
`CCc1cccc2cccc(N3CCc4c(nc(OCC56CCCN5CCC6)nc4N4CCCC(n5ccc(C)n5)C4)C3)c12` (centres unmarked) [Example 94, 7-(8-ethylnaphthalen-1-yl)-4-(3-(3-methyl-1H-pyrazol-1-yl)piperidin-1-yl)-2-((tetrahydro-1H-pyrrolizin-7a(5H)-yl)methoxy)-5,6,7,8-tetrahydropyrido[3,4-d]pyrimidine]: the IC50 on KRas^WT came out at 860 nM; at KRas^G12A it was 793 nM; at KRas^G12D, 2120 nM; at KRas^G12R it was 244 nM; at KRas^G12S, 883 nM; on KRas^G12V it was 1290 nM. Also, the values for the half-inhibitory concentration (IC50) against KRas^G12C, at KRas^G13D and against KRas^Q61H were 525 nM, 699 nM and 757 nM, respectively.
Consider `CCc1cccc2cccc(N3CCc4c(nc(OCC56CCCN5CCC6)nc4N4CCC(n5ccnn5)CC4)C3)c12` [Example 151, 4-(4-(1H-1,2,3-triazol-1-yl)piperidin-1-yl)-7-(8-ethylnaphthalen-1-yl)-2-((tetrahydro-1H-pyrrolizin-7a(5H)-yl)methoxy)-5,6,7,8-tetrahydropyrido[3,4-d]pyrimidine], for which the IC50 on KRas^WT stood at 3650 nM; on KRas^G12A it was 2690 nM; at KRas^G12D, 30900 nM; on KRas^G12R, 1610 nM; on KRas^G12S, 4720 nM; on KRas^G12V, 5410 nM. The IC50 at KRas^G12C was 3470 nM; at KRas^G13D, 2700 nM; against KRas^Q61H it was 4580 nM.
In the case of `CCc1cccc2cccc(N3CCc4c(nc(OCC56CCCN5CCC6)nc4NCc4cccnc4-n4cncn4)C3)c12` [Example 142, N-((2-(1H-1,2,4-triazol-1-yl)pyridin-3-yl)methyl)-7-(8-ethylnaphthalen-1-yl)-2-((tetrahydro-1H-pyrrolizin-7a(5H)-yl)methoxy)-5,6,7,8-tetrahydropyrido[3,4-d]pyrimidin-4-amine], the IC50 on KRas^WT turned out to be 7520 nM; at KRas^G12A it was 2320 nM; on KRas^G12D, 10500 nM; on KRas^G12R, 1720 nM; at KRas^G12S, 1870 nM; on KRas^G12V, 1380 nM. The IC50 at KRas^G12C is 1250 nM; at KRas^G13D, 13100 nM; on KRas^Q61H, 7250 nM.
In the case of `CCc1cccc2cccc(N3CCc4c(nc(OCC56CCCN5CCC6)nc4N4CCCC(CO)CC4)C3)c12` (centres unmarked) [Example 107, (1-(7-(8-ethylnaphthalen-1-yl)-2-((tetrahydro-1H-pyrrolizin-7a(5H)-yl)methoxy)-5,6,7,8-tetrahydropyrido[3,4-d]pyrimidin-4-yl)azepan-4-yl)methanol], the IC50 at KRas^WT was found to be 369 nM; at KRas^G12A, 423 nM; at KRas^G12D, 1450 nM; on KRas^G12R, 638 nM; at KRas^G12S, 535 nM; at KRas^G12V, 406 nM. Further, the IC50 was determined as 487 nM against KRas^G12C, 465 nM on KRas^G13D and 528 nM at KRas^Q61H.
For the molecule `CCc1cccc2cccc(N3CCc4c(nc(OCC56CCCN5CCC6)nc4N4CCOCC(O)C4)C3)c12` (centres unmarked) [Example 6, 4-(7-(8-ethylnaphthalen-1-yl)-2-((tetrahydro-1H-pyrrolizin-7a(5H)-yl)methoxy)-5,6,7,8-tetrahydropyrido[3,4-d]pyrimidin-4-yl)-1,4-oxazepan-6-ol], the IC50 was found to be 104 nM on KRas^WT; 86 nM on KRas^G12A; 310 nM at KRas^G12D; 71 nM at KRas^G12R; 100 nM at KRas^G12S; 118 nM at KRas^G12V. For the same molecule, the 50% inhibitory concentration (IC50) against KRas^G12C worked out at 88 nM; against KRas^G13D, 159 nM; against KRas^Q61H, 132 nM.

Values taken from US12421253B2 (Mirati Therapeutics, Inc., priority 2020, dated 2025).
